# Where two headings read alike, the source gives them in different places.
# Assay: Phase I study plasma pharmacokinetics
# Assay type: in vivo, human
# Conditions: human, plasma; for AUC(0-inf) / AUC(0-t) / Cmax / AUC / Vd/F: mean; for AUC: read-out: AUC24; for Vd/F: read-out: Vz/F; for half-life: read-out: median t1/2 at steady state
# Source text: The PK parameters of belvarafenib were estimated in 48 patients in the dose-escalation phase and 35 patients in the dose-expansion phase. In the tables: “AUClast” refers to the area under the plasma concentration-time curve from zero time until the last measurable concentration; “AUC0-∞” refers to area under the plasma concentration-time curve from zero time to infinity; “AUC24” refers to the area under the curve from T0 to T24; “Cmax” refers to the maximal concentration; “Tmax” refers to the time to reach Cmax; “T1/2β” refers to the terminal elimination half-life; “QD” refers to once a day; and “BID” refers to twice a day. […] Mean and coefficient of variation are presented except for Tmax where median and range are presented. One patient in the 200 QD dosing regimen who took concomitant rifampin was removed from the analysis because the AUC and Cmax of the patient were much lower than those of the others in the same cohort, which, without being bound to any particular theory, could have resulted from the drug-metabolizing enzyme induction by rifampin through which belvarafenib is biotransformed.
# [1] = oral, 600 mg/day, Multiple administrations Day 22, 600 mg/day QD, n=6
# [2] = oral, 900 mg/day, Multiple administrations Day 22, 900 mg/day BID, n=7
# [3] = oral, 1300 mg/day, Multiple administrations Day 22, 1300 mg/day BID, n=6
# [4] = oral, 1600 mg/day, Multiple administrations Day 22, 1600 mg/day BID, n=4
# [5] = po, 50 mg/day QD, Day 1 first dose, 50 mg/day QD, n=3
# [6] = po, 100 mg/day QD, Day 1 first dose, 100 mg/day QD, n=3
# [7] = po, 200 mg, Day 1 first dose, 200 mg/day QD, n=6
# [8] = po, 200 mg/day QD, Day 1 first dose, 200 mg/day QD, n=7
# [9] = po, 400 mg/day BID, Day 1 first dose, 400 mg/day BID, n=11
# [10] = po, 600 mg/day BID, Day 1 first dose, 600 mg/day BID, n=7
# [11] = po, 600 mg/day, Day 1 first dose, 600 mg/day BID, n=7
# [12] = po, 600 mg/day, Day 1 first dose, 600 mg/day QD, n=6
# [13] = po, 900 mg/day, Day 1 first dose, 900 mg/day BID, n=8
# [14] = po, 1300 mg/day, Day 1 first dose, 1300 mg/day BID, n=6
# [15] = po, 1600 mg/day, Day 1 first dose, 1600 mg/day BID, n=6
compound,measurement,setting,value
Cc1ccc2c(Nc3cccc(Cl)c3F)nccc2c1NC(=O)c1csc2c(N)ncnc12 [Belvarafenib],Tmax,"oral, 600 mg/day, Multiple administrations Day 22, 600 mg/day BID, n=6, median, read-out: Tmax",3.4 h
same,AUC(0-inf),[1],434000 ng·h/mL
same,AUC(0-t),[1],57600 ng·h/mL
same,Cmax,[1],3130 ng/mL
same,AUC,[1],58000 ng·h/mL
same,Vd/F,[1],241 L
same,Tmax,"oral, 600 mg/day, Multiple administrations Day 22, 600 mg/day QD, n=6, median, read-out: Tmax",4.1 h
same,AUC(0-inf),[2],322000 ng·h/mL
same,AUC(0-t),[2],126000 ng·h/mL
same,Cmax,[2],6090 ng/mL
same,AUC,[2],127000 ng·h/mL
same,Vd/F,[2],148 L
same,Tmax,"oral, 900 mg/day, Multiple administrations Day 22, 900 mg/day BID, n=7, median, read-out: Tmax",2.9 h
same,AUC(0-inf),[3],625000 ng·h/mL
same,AUC(0-t),[3],158000 ng·h/mL
same,Cmax,[3],7320 ng/mL
same,AUC,[3],159000 ng·h/mL
same,Vd/F,[3],195 L
same,Tmax,"oral, 1300 mg/day, Multiple administrations Day 22, 1300 mg/day BID, n=6, median, read-out: Tmax",2 h
same,AUC(0-inf),[4],139000 ng·h/mL
same,AUC(0-t),[4],49200 ng·h/mL
same,Cmax,[4],2360 ng/mL
same,AUC,[4],49600 ng·h/mL
same,Vd/F,[4],871 L
same,Tmax,"oral, 1600 mg/day, Multiple administrations Day 22, 1600 mg/day BID, n=4, median, read-out: Tmax",5.5 h
same,Tmax,"oral, BID regimens, read-out: Single-dose median Tmax",15.5 to 24 h
same,half-life,"oral, BID regimens",32.3 to 66.4 h
same,Tmax,"oral, QD regimens, read-out: Single-dose median Tmax",3 to 4.5 h
same,half-life,"oral, QD regimens",65.1 to 106 h
same,AUC(0-inf),[5],27000 ng·h/mL
same,Cmax,[5],553 ng/mL
same,Vd/F,[5],186 L
same,Tmax,"po, 50 mg/day QD, Day 1 first dose, 50 mg/day QD, n=3, median, read-out: Tmax",3 h
same,AUC(0-t),"po, 50 mg/day, Day 1 first dose, 50 mg/day QD, n=3",13000 ng·h/mL
same,AUC(0-inf),[6],51500 ng·h/mL
same,Cmax,[6],807 ng/mL
same,Vd/F,[6],215 L
same,Tmax,"po, 100 mg/day QD, Day 1 first dose, 100 mg/day QD, n=3, median, read-out: Tmax",3 h
same,AUC(0-t),"po, 100 mg/day, Day 1 first dose, 100 mg/day QD, n=3",45000 ng·h/mL
same,AUC(0-inf),[7],37800 ng·h/mL
same,AUC(0-t),[7],28800 ng·h/mL
same,Cmax,[7],602 ng/mL
same,Vd/F,[7],529 L
same,Tmax,"po, 200 mg, Day 1 first dose, 200 mg/day QD, n=6, median, read-out: Tmax",4.4 h
same,AUC(0-inf),[8],32800 ng·h/mL
same,Cmax,[8],549 ng/mL
same,Vd/F,[8],550 L
same,Tmax,"po, 200 mg/day QD, Day 1 first dose, 200 mg/day QD, n=7, median, read-out: Tmax",4.1 h
same,AUC(0-t),"po, 200 mg/day, Day 1 first dose, 200 mg/day QD, n=7",25100 ng·h/mL
same,AUC(0-inf),[9],78300 ng·h/mL
same,Cmax,[9],900 ng/mL
same,Vd/F,[9],758 L
same,Tmax,"po, 400 mg/day BID, Day 1 first dose, 400 mg/day BID, n=11, median, read-out: Tmax",6.9 h
same,AUC(0-t),"po, 400 mg/day, Day 1 first dose, 400 mg/day BID, n=11",62300 ng·h/mL
same,AUC(0-inf),[10],169000 ng·h/mL
same,AUC(0-t),[10],121000 ng·h/mL
same,AUC(0-t),"po, 600 mg/day QD, Day 1 first dose, 600 mg/day QD, n=6",71100 ng·h/mL
same,Cmax,[11],1210 ng/mL
same,Vd/F,[11],884 L
same,Tmax,"po, 600 mg/day, Day 1 first dose, 600 mg/day BID, n=7, median, read-out: Tmax",24 h
same,AUC(0-inf),[12],84700 ng·h/mL
same,Cmax,[12],1320 ng/mL
same,Vd/F,[12],798 L
same,Tmax,"po, 600 mg/day, Day 1 first dose, 600 mg/day QD, n=6, median, read-out: Tmax",4.5 h
same,AUC(0-inf),[13],177000 ng·h/mL
same,Cmax,[13],1590 ng/mL
same,Vd/F,[13],534 L
same,Tmax,"po, 900 mg/day, Day 1 first dose, 900 mg/day BID, n=8, median, read-out: Tmax",17 h
same,AUC(0-t),"po, 1300 mg/day BID, Day 1 first dose, 1300 mg/day BID, n=6",156000 ng·h/mL
same,AUC(0-inf),[14],225000 ng·h/mL
same,Cmax,[14],1790 ng/mL
same,Vd/F,[14],708 L
same,Tmax,"po, 1300 mg/day, Day 1 first dose, 1300 mg/day BID, n=6, median, read-out: Tmax",15.5 h
same,AUC(0-t),"po, 1600 mg/day BID, Day 1 first dose, 1600 mg/day BID, n=6",134000 ng·h/mL
same,AUC(0-inf),[15],336000 ng·h/mL
same,Cmax,[15],1440 ng/mL
same,Vd/F,[15],1700 L
same,Tmax,"po, 1600 mg/day, Day 1 first dose, 1600 mg/day BID, n=6, median, read-out: Tmax",20.4 h
